# Entries after “also recorded” stand apart in the source; their conditions may differ.
# Legend:
# Format in all cases: cell-based, human
# HeLa cells = test: Cell cycle analysis by flow cytometry; conditions: 2.74 and 5.48 μM, 24 hours
# Protocol: To further explore the mechanism of cell growth inhibition by compound 17, we examined the effects of compound 17 on cell cycle distribution in HeLa cells using flow cytometry.
# Cells cycle distribution was analyzed as previously described. In brief, HeLa cells (1.5 × 10^4/well) seeded in six-well plates were incubated with compound 17 for 24 h. Then, the cells were collected, washed twice with phosphate-buffered saline (PBS), and fixed in 70% cold ethanol at −20 °C overnight. Finally, the samples were stained with 50 μg/mL propidium iodide and 30 μg/mL of RNase A at 37 °C for 1 h. DNA content data were acquired using CELLQuest software on a flow cytometer (FACSCalibur; Becton Dickinson, Mountain View, CA, USA).
# [1] = tested on: mTORC1 (phosphorylation of p70S6K and 4E-BP1) in HeLa cells; test: Western blot of mTORC1 activity; conditions: 2.47 and 5.48 μM
# Protocol: In vitro mTOR kinase assay confirmed that 17 did inhibit mTOR kinase activity (Table 1). The mTOR pathway is frequently activated in human cancers (e.g., HeLa and MCF-7). To assure compound 17 inhibits the mTOR pathway inside the cell, western blotting was employed to check the activity of mTORC1 (Complex 1) and mTORC2 (Complex 2). HeLa cell line was selected for western blot analysis after treatment with compound 17 at 2.47 and 5.48 μM; detailed results are shown in Fig. 8.
# mTORC1 activity was evaluated by determining the phosphorylation level of its targets, p70S6K and 4E-BP1, in the HeLa cell line. […] Quantitative of the phosphorylation levels of p70SK6 and 4E-BP1 are […] with the concentration of 17 (Fig. 8).
# (§1) HeLa cells were cultured in a six-well plate in the presence of compound 17 for 48 h. Samples were prepared by lysing PBS-washed cells with RIPA buffer (Beyotime, Haimen, China) consisting of 1% Nonidet P-40, 0.5% sodium deoxycholate, 0.1% SDS, and 50 mM Tris-HCl, pH 7.4, supplemented with NaF, NaVO4, EDTA and a protease inhibitor cocktail (Roche). Proteins were subjected to SDS-PAGE gel electrophoresis and transferred onto a polyvinylidene difluoride membrane (Hybond-P; GE Healthcare Life Sciences, Piscataway, NJ). […] The densitometry of each band was quantified by FluorChem 8000 (AlphaInnotech, San Leandro, CA).
# [2] = tested on: PI3K pathway (Akt phosphorylation on Thr308) in HeLa cells; test: Western blot of PI3K pathway; conditions: compared with the controls
# Protocol: To evaluate whether compound 17 inhibits the PI3K pathway, the Akt phosphorylation level on Thr308 was determined.
# as §1, with “NJ). Immunoblotting was performed using rabbit monoclonal antibodies (Cell Signaling Technology; Danvers, MA) against p70S6K1 phosphorylated on Thr 389 (#9234) and total p70S6K1 (#2708), 4E-BP1 phosphorylated on Thr 37 (#2855) and total 4E-BP1 (#9452), Akt phosphorylated on Thr 308 (#4056) or Ser 473 (#4060) and total Akt (#4685), cleaved caspase-3 (#9664), PARP (#9532), and β-actin (#3700).” for “NJ).”
# [3] = tested on: mTORC2 (Akt phosphorylation on Ser473) in HeLa cells; test: Western blot of mTORC2 activity
# Protocol: Accordingly, we checked mTORC2 activity by measuring Akt phosphorylation levels on Ser473 in HeLa cells. […] In other words, the mechanism of HeLa cell death induced by 17 was apoptosis, and induction was achieved by targeting both mTORC1 and mTORC2 simultaneously.
# as §1, with “NJ). Immunoblotting was performed using rabbit monoclonal antibodies (Cell Signaling Technology; Danvers, MA) against p70S6K1 phosphorylated on Thr 389 (#9234) and total p70S6K1 (#2708), 4E-BP1 phosphorylated on Thr 37 (#2855) and total 4E-BP1 (#9452), Akt phosphorylated on Thr 308 (#4056) or Ser 473 (#4060) and total Akt (#4685), cleaved caspase-3 (#9664), PARP (#9532), and β-actin (#3700).” for “NJ).”
# [4] = tested on: caspase-3 activation and PARP cleavage in HeLa cells; test: Western blot of apoptosis markers; conditions: 24 h, compared with control
# Protocol: To elucidate the mechanisms of cell death induced by 17, we analyzed the effect of 17 on nuclear morphology using Hoechst 33342 staining. […] This observation allowed for clear discrimination of treated cells from untreated non-apoptotic HeLa cells, which have a normal, round, and unpunctuated nucleus. […] The percentage of apoptotic HeLa cells were 6.5% and 7.7% at the concentrations of 2.74 and 5.48 μM, respectively (Fig. 6d). To further confirm the nuclear morphology observation, Western blotting was used to detect caspase-3 activation and PARP cleavage, two biochemical markers of apoptosis. […] The induction of apoptosis is positively correlated with the concentration of compound 17.
# as §1, with “HeLa cells were cultured in a six-well plate in the presence of compound 17 for 48 h.” left out
structure (smiles),measurement,setting,value
Nc1nn2c(nc(N)c3c(N)n[nH]c32)c1/N=N/c1ccccc1 [Compound 17],cell cycle distribution,HeLa cells,arrests the cell cycle of HeLa at the G1/G0-phase; also recorded: induced an arrest of cell cycle at the G1/G0-phase
same,phosphorylation level of 4E-BP1,[1],suppressed
same,phosphorylation level of p70S6K,[1],suppressed
same,P-Akt Thr308,[2],not affected
same,P-Akt Ser473,[3],can reduce P-Akt Ser473
same,levels of cleaved (activated) caspase-3 and PARP,[4],markedly increased
